The values that follow come from patent US4994459A, “Aryloxypropane substituted piperazine derivatives with antiarrhythmic and antifibrillatory activity” (American Home Products Corporation, priority 1989, dated 1991).

The test system of assay [1] is Pigs (Durrock-Landrace cross). The assay can be described thus: Coronary occlusion-reperfusion in anesthetized pigs (20 min LAD occlusion, then reperfusion; survival). The class given is in vivo, pig. The settings on record: 20 minutes before LAD occlusion. Here is the method:
Pigs (Durrock-Landrace cross) of either sex weighing 12 to 24 kg were anesthetized by administration of sodium pentobarbital. (35 mg/kg i.p. and supplemented with 5 mg/kg/hr. i.v.) and ventilated with room air following tracheotomy (minute volume: 200 mL/kg). The left femoral artery and vein were cannulated for the recording of blood pressure and for drug administration, respectively. Blood pressure and lead II EKG were recorded on a chart recorder.
The heart was exposed by a left thoracotomy performed at the fifth intercostal space. A silk ligature was placed beneath the left anterior descending coronary artery (LAD) about 1.5 cm from its origin and distal to the septal artery branch. The artery was occluded by lifting the vessel with the ligature and quickly placing a bull-dog clamp (3×12 mm padded jaws) over the artery. The clamp remained in place for a period of 20 minutes. Removal of the clamp produced a rapid reperfusion of the ischemic myocardium as evidenced by the return of normal color to the myocardium distal to the site of occlusion. Ectopic activity was monitored during occlusion and reperfusion by recording the lead II EKG at chart speeds of 5 to 25 mm/second. Animals were allowed to stabilize for at least 30 minutes prior to drug administration.
Pigs were randomized into groups receiving either vehicle or test drug at a given dose (1-5 mg/kg i.v.) 20 minutes before LAD occlusion. Animals surviving the period of occlusion were subsequently reperfused. No attempt was made to resuscitate animals experiencing ventricular fibrillation (VF) at any time following occlusion. In the absence of treatment, less than 30 percent of the animals survive the 20 minute period of occlusion, with a mean time to death onset of 8 to 12 minutes. Effective compounds either prevent death due to VF or prolong survival time.

The subject of another assay is Purkinje fiber. The experiment in a line: Cardiac electrophysiology in vitro, dog Purkinje fibers (action potential parameters). The class given is cell-based. Also on record: unit not given here. Particulars: 3 μM. The protocol:
The compounds of this invention display a Class III antiarrhythmic profile. The Class III antiarrhythmic activity was established in vitro and in vivo in accordance with the following standard test procedures. Bundles of free-running Purkinje fibers with attached myocardium obtained from either ventricle of adult dog heart were pinned without stretching to the bottom of a 10 mL tissue chamber and continuously superfused with oxygenated Tyrode's solution at a flow rate of 5 mL/min. The composition of the Tyrode's solution was (mM): NaCl, 138; KCl 4; CaCl2, 2; MgCl2 0.5; NaHCO3, 24; dextrose, 5.5. The solution was aerated with 95% O2 -5% CO2 at 37° C. Bath temperature was maintained at 37±0.5° C. by circulating the pre-warmed superfusate through a thermostatically controlled water bath immediately prior to entering the tissue chamber. The preparations were stimulated through bipolar Teflon-coated silver wires, bared at the tips, placed on the endocardial surface of the attached myocardium, using a digital stimulator set to deliver constant current pulses 1.5-msec in duration at cycle lengths of 300 or 1000 msec. Stimulus strength was set at approximately 2×diastolic threshold, and adjusted as required throughout the experiment. All preparations were allowed to equilibrate in the tissue chamber for at least 1 hour before measurements were begun. Subsequently, a minimum of 60 minutes were allowed for equilibration with each drug-containing superfusate before post-drug measurements were made. Impalements were made at 6 to 10 sites throughout the preparation before and after drug exposure. Offset potentials were rechecked after each impalement. Glass microelectrodes filled with 3M KCl were coupled to high impedance negative capacitance electrometers and Ag/AgCl half-cells used as reference electrodes. The first derivative of the action potential upstroke (Vmax) was obtained using an analog differentiator circuit, coupled to a peak-hold circuit that retained the recorded value of Vmax for 30 to 70-msec. […] In addition, chart paper recordings of Vmax were obtained using the peak-hold device output. Fresh stock solutions of drug were prepared for each experiment. […] Action potential (AP) parameters measured included: diastolic take-off potential or activation voltage, (Vact); AP overshoot (Vos); AP duration measured as the time taken to repolarize to -20 mV (APD-20),-60 mV (APD-60), and -80 mV (APD-80); and maximal upstroke velocity (Vmax). An increase in APD-60 that occurred without a significant change in Vmax was taken, by definition, to indicate Class III antiarrhythmic activity "in vitro".

The next assay deals with Anesthetized Dog. The assay can be described thus: Cardiac electrophysiology in anesthetized dogs (refractory periods, conduction times, heart rate, blood pressure). The assay is classed as in vivo. Also noted: ACT (atrial conduction time), change / VCT (ventricular conduction time), change / BP, change: unit not given here. Particulars: 5 mg/kg i.v.; for ACT (atrial conduction time), change / AERP (refractory period of the right atrium), change / VCT (ventricular conduction time), change / VERP (refractory period of the right ventricle), change: BCL = 300, Example 1 n = 3; for BP, change / HR, change: Example 1 n = 3. The protocol:
The compounds of this invention display a Class III antiarrhythmic profile. The Class III antiarrhythmic activity was established in vitro and in vivo in accordance with the following standard test procedures. Mongrel dogs of both sexes weighing 12 to 18 kg were anesthetized with sodium pentobarbital (35 mg/kg i.v. supplemented with 5 mg/kg/h) and artificially ventilated with room air (minute volume: 200 mL/kg). The heart was exposed by a right thoractomy performed at the fifth intercostal space and suspended in a pericardial cradle. Epicardial electrodes for stimulation and recording were sutured to the free wall of the lower right atrium and near the base of the right ventricle. Each electrode set contained a linear array of electrodes consisting of 1 bipolar stimulating electrode and 2 bipolar recording electrodes embedded in a rigid acrylic matrix. The stimulating bipole was 7 mm from the proximal recording electrode, which in turn was 10 mm from the distal recording bipole. Each electrode array was oriented to be parallel to the epicardial fiber axis. […] Conduction times and refractory periods were measured during pacing at a cycle length of 300 msec. The dog heart was paced by a stimulator driving a constant current isolation unit. […] Diastolic threshold was determined before and after each trial. Refractory periods of the right atrium and right ventricle ([…]) were determined by introducing an extrastimulus (S2) every 8 paced beats (S1). The extrastimulus was followed by a 4-second rest interval during which no pacing occurred. Both S1 and S2 were of identical intensity (twice threshold) and duration (2 msec). […] This S1 -S2 interval was considered to define effective refractory period. Atrial and ventricular (ACT and VCT) conduction times were measured as the time interval between the 2 electrograms recorded at the proximal and distal sites of the recording electrode array. The time of activation for electrograms with predominantly biphasic complexes was taken as the moment when the trace crossed the zero reference line, and for triphasic complexes, as the peak of the major deflection. Animals received the test compound by i.v. injection. Drugs were administered cumulatively at the following dose levels: 1, 2.5, 5, 7.5, 10 mg/kg. Each dose was administered over a 3 minute period. Electrophysiologic testing was performed 15 minutes following the end of dosing. Every 30 minutes the dog received the next incremental dose. […] An increase in ERP that occurred without a significant decrease of CT was taken, by definition to indicate "in vivo" Class III antiarrhythmic activity.

The conditions of assay [2]: dextro enantiomer; Taggart et al. 1985, McComb et al. 1985; cited from earlier work.

Regarding `Cl.Cl.O=[N+]([O-])c1ccc(OCC(O)CN2CCN(c3ccccn3)CC2)cc1` (racemic) [Example 1, α-[(4-Nitrophenoxy)methyl]-4-(2-pyridinyl)-1-piperazineethanol Dihydrochloride], in assay [1] (2.5 mg/Kg i.v.), the “Fraction of pigs surviving 20 min. occlusion” value was 1/4 and the “Fraction of pigs surviving reperfusion” value is recorded as 0/4. Besides, in assay [1] (5 mg/Kg i.v.), the “Fraction of pigs surviving 20 min. occlusion” value is recorded as 4/4 and the “Fraction of pigs surviving reperfusion” value is listed as 2/4. In the assay with Purkinje fiber (BCL = 300, Example 1 n = 2), the “APD-60 (AP duration, time to repolarize to -60 mV), change” value amounted to 15 and the “Vmax (maximal upstroke velocity), change” value is -19. Further, in the assay on Purkinje fiber (BCL = 1000, Example 1 n = 3), the “APD-60 (AP duration, time to repolarize to -60 mV), change” value is on record as 29 ± 6 and the “Vmax (maximal upstroke velocity), change” value is recorded as -8 ± 5. Besides, in the assay on Anesthetized Dog, the “ACT (atrial conduction time), change” value is 16 ± 1; the “AERP (refractory period of the right atrium), change” value (“AERP … change” below) amounted to 69 ± 7; the “VCT (ventricular conduction time), change” value (shortened to “VCT … change”) is listed as -7 ± 9; the “VERP (refractory period of the right ventricle), change” value (“VERP … change” below) is 25 ± 3. Besides, in the assay with Anesthetized Dog, the “BP, change” value is given as -33 ± 9 and the “HR, change” value was -33 ± 1.

As for `CS(=O)(=O)Nc1ccc(OCC(O)CN2CCN(c3ncccn3)CC2)cc1` (centres unmarked) [Example 4, N-[4-[2-Hydroxy-3-[4-(2-pyrimidinyl)-1-piperazinyl]-propoxy]phenyl]methanesulfonamide], in the assay with Purkinje fiber (BCL = 300, Example 1 n = 2), the “APD-60 (AP duration, time to repolarize to -60 mV), change” value is on record as 16 and the “Vmax (maximal upstroke velocity), change” value is given as -12. In addition, in the assay on Purkinje fiber (BCL = 1000, Example 1 n = 3), the “APD-60 (AP duration, time to repolarize to -60 mV), change” value stood at 33 and the “Vmax (maximal upstroke velocity), change” value is -17. In addition, in the assay on Anesthetized Dog, the “ACT (atrial conduction time), change” value was -4; the “AERP … change” value was 24; the “VCT … change” value is recorded as 0; the “VERP … change” value came to 13. In the assay with Anesthetized Dog, the “BP, change” value is -16 and the “HR, change” value was -14.

For `CS(=O)(=O)Nc1ccc(OCC(O)CN2CCN(c3ccccn3)CC2)cc1` (centres unmarked) [Example 5, N-[4-[2-Hydroxy-3-[4-(2-pyridinyl)-1-piperazinyl]propoxy]phenyl]methanesulfonamide], in the assay with Purkinje fiber (BCL = 300, Example 1 n = 2), the “APD-60 (AP duration, time to repolarize to -60 mV), change” value amounted to 30 and the “Vmax (maximal upstroke velocity), change” value was 7. Further, in the assay on Purkinje fiber (BCL = 1000, Example 1 n = 3), the “APD-60 (AP duration, time to repolarize to -60 mV), change” value was determined as 50 and the “Vmax (maximal upstroke velocity), change” value was found to be 14. In the assay on Anesthetized Dog, the “ACT (atrial conduction time), change” value is reported as 6; the “AERP … change” value is on record as 56; the “VCT … change” value stood at 3; the “VERP … change” value is listed as 13. Also, in the assay on Anesthetized Dog, the “BP, change” value is given as -25 and the “HR, change” value is on record as -15.

For `CC(C)NCC(O)c1ccc(NS(C)(=O)=O)cc1` (centres unmarked) [Sotalol, 4-(2-isopropylamino-1-hydroxyethyl)-methane-sulfonamide], the “selective Class III antiarrhythmic activity” value in assay [2] is on record as “selective Class III antiarrhythmic activity”.
